Reference: ChEMBL document CHEMBL5678796, “A highly potent and selective farnesyltransferase inhibitor ABT-100 in preclinical studies” (Anticancer Drugs, 2005)

Assays:
[1] = Oral bioavailability in rat at 5 mg/kg; assay type: ADME, organism-based; details: in vivo
HCT-116 [2] = test: Antitumor activity against human HCT-116 cells xenografted in nu/nu CD1 mouse assessed as tumor volume at 25 mg/kg, sc preinoculated with cells for 5 days followed by once daily compound administration for 21 days and measured on day 25 (reference value: 1569 +/- 165 mm^3); assay type: functional; details: time 25 day
[3] = Clearance in dog at 2.5 mg/kg, iv; assay type: ADME, organism-based, Canis lupus familiaris; details: in vivo
HCT-116 [4] = test: Antitumor activity against human HCT-116 cells xenografted in nu/nu CD1 mouse assessed as tumor volume at 50 mg/kg, sc preinoculated with cells for 5 days followed by once every 2 days compound administration for 11 times and measured on day 22 (reference value: 1557 +/- 370 mm^3); assay type: functional; details: time 22 day
[5] = Ratio of EC50 for inhibition of FTase in human HCT-116 cells expressing low level of P-gp1 using Ras as substrate assessed as inhibition of substrate post-translation processing in presence of 20% human serum to EC50 for inhibition of FTase in human HCT-116 cells expressing low level of P-gp1 using Ras as substrate assessed as inhibition of substrate post-translation processing in presence of 10% …; details: condition cancer
HCT-116 [6] = test: Inhibition of anchorage-independent growth in human HCT-116 cells assessed as inhibition of colony formation incubated for 14 days in presence of 10% FBS by imaging based soft agar colony formation assay; assay type: functional, cell-based
[7] = Inhibition of FTase in H-Ras transformed mouse NIH3T3 cells using Ras as substrate assessed as inhibition of substrate prenylation in presence of 10% bovine serum by immunoblot analysis; assay type: cell-based
[8] = Volume of distribution in rat at 5 mg/kg, iv; assay type: ADME, organism-based; details: in vivo
[9] = Inhibition of FTase in human DLD-1 cells expressing moderate level of P-gp1 using Ras as substrate assessed as inhibition of substrate post-translation processing in presence of 10% FBS by immunoblot analysis; assay type: cell-based
[10] = Half-life in dog at 2.5 mg/kg, po; assay type: ADME, organism-based, Canis lupus familiaris; details: in vivo
HCT-116 [11] = test: Antitumor activity against human HCT-116 cells xenografted in nu/nu CD1 mouse assessed as increase in life span at 100 mg/kg, sc preinoculated with cells for 5 days followed by once every 2 days compound administration for 11 times and measured on day 22 relative to vehicle in time to 1 cm3 tumor; assay type: functional; details: HCT-116, 528 h, time 22 day
[12] = AUC in rat at 5 mg/kg, iv; assay type: ADME, organism-based; details: in vivo
[13] = Inhibition of FTase in human HCT-15 cells expressing high level of P-gp1 using Ras as substrate assessed as inhibition of substrate post-translation processing in presence of 10% FBS by immunoblot analysis; assay type: cell-based
HCT-116 [14] = test: Antitumor activity against human HCT-116 cells xenografted in nu/nu CD1 mouse assessed as reduction in tumor volume by measuring test to control ratio at 50 mg/kg, sc preinoculated with cells for 5 days followed by once every 2 days compound administration for 11 times and measured on day 22; assay type: functional; details: time 22 day
[15] = Ratio of EC50 for inhibition of FTase in human DLD-1 cells expressing moderate level of P-gp1 using Ras as substrate assessed as inhibition of substrate post-translation processing in presence of 20% human serum to EC50 for inhibition of FTase in human DLD-1 cells expressing moderate level of P-gp1 using Ras as substrate assessed as inhibition of substrate post-translation processing in presence …; details: condition cancer
NIH3T3 = test: Inhibition of VEGF secretion in mouse NIH3T3 cells incubated for 72 hrs ELISA; assay type: functional, cell-based; details: dose 0.1-3 µmol/L
Mus musculus [16] = test: Antiangiogenic activity in human recombinant bFGF-stimulated CF1 mouse corneal model assessed as inhibition of new blood growth area at 100 mg/kg, sc prestimulated with bFGF followed by compound administration and measured on day 5 by slit lamp biomicroscopic analysis relative to control; assay type: functional; details: CF1, 120 h, time 5 day
Bos taurus = species: Bos taurus; test: Selectivity index, ratio of IC50 for inhibition of bovine GGTase 1 to IC50 for inhibition of recombinant bovine FTase
[17] = Oral bioavailability in rat at 25 mg/kg; assay type: ADME, organism-based; details: in vivo
[18] = Inhibition of FTase in human DLD-1 cells expressing moderate level of P-gp1 using Ras as substrate assessed as inhibition of substrate post-translation processing in presence of 10% human serum by immunoblot analysis; assay type: cell-based
HCT-116 [19] = test: Antitumor activity against human HCT-116 cells xenografted in nu/nu CD1 mouse assessed as increase in life span at 50 mg/kg, sc preinoculated with cells for 5 days followed by once every 2 days compound administration for 11 times and measured on day 22 relative to vehicle in time to 1 cm3 tumor; assay type: functional; details: HCT-116, 528 h, time 22 day
HCT-116 [20] = test: Antitumor activity against human HCT-116 cells xenografted in nu/nu CD1 mouse assessed as reduction in tumor volume by measuring tumor to control ratio at 25 mg/kg, sc preinoculated with cells for 5 days followed by once daily compound administration for 21 days and measured on day 25; assay type: functional; details: time 25 day
[21] = Ratio of EC50 for inhibition of FTase in human HCT-15 cells expressing high level of P-gp1 using Ras as substrate assessed as inhibition of substrate post-translation processing in presence of 20% human serum to EC50 for inhibition of FTase in human HCT-15 cells expressing high level of P-gp1 using Ras as substrate assessed as inhibition of substrate post-translation processing in presence of 10% …; details: condition cancer
HCT-116 [22] = test: Inhibition of VEGF secretion in human HCT-116 cells incubated for 72 hrs by ELISA; assay type: functional, cell-based; details: dose 0.1-3 µmol/L
[23] = Inhibition of FTase in human HCT-116 cells expressing low level of P-gp1 using Ras as substrate assessed as inhibition of substrate post-translation processing in presence of 20% human serum by immunoblot analysis; assay type: cell-based
[24] = Clearance in rat at 5 mg/kg, iv; assay type: ADME, organism-based; details: in vivo
[25] = Inhibition of recombinant bovine FTase incubated for 30 mins in presence of [3H]FPP by SPA based Topcount scintillation plate reader analysis; set-up: species or system Bos taurus
[26] = Cmax in dog at 2.5 mg/kg, po; assay type: ADME, organism-based, Canis lupus familiaris; details: in vivo
Mus musculus [27] = test: Antiangiogenic activity in human recombinant bFGF-stimulated CF1 mouse corneal model assessed as inhibition of new blood growth area at 50 mg/kg, sc prestimulated with bFGF followed by compound administration and measured on day 5 by slit lamp biomicroscopic analysis relative to control; assay type: functional; details: CF1, 120 h, time 5 day
[28] = AUC in dog at 2.5 mg/kg, iv; assay type: ADME, organism-based, Canis lupus familiaris; details: in vivo
HCT-116 [29] = test: Antitumor activity against human HCT-116 cells xenografted in nu/nu CD1 mouse assessed as increase in life span at 12.5 mg/kg, sc preinoculated with cells for 5 days followed by once daily compound administration for 21 days and measured on day 25 relative to vehicle in time to 1 cm^3 tumor; assay type: functional; details: HCT-116, 600 h, time 25 day

Cn1cncc1[C@](O)(COc1ccc(C#N)cc1-c1ccc(OC(F)(F)F)cc1)c1ccc(C#N)cc1 [ABT-100]
bioavailability [1]: 15.1%
Activity (HCT-116 [2]): 553 mm3
clearance [3]: 5.67 mL/min/kg
Activity (HCT-116 [4]): 873 mm3
Ratio EC50 [5]: 1.5
EC50 (HCT-116 [6]; HCT-116, 336 h): 6100 pM
inhibition (HCT-116 [6]; time 14.0 day): Dose-Dependent Effect
EC50 [7]: 730 pM
Vd [8]: 5.6 L/kg
EC50 [9]: 260 pM
half-life [10]: 5.9 h
ILS at 100 mg/kg (HCT-116 [11]): 32%
AUC [12]: 3010 ng·h/mL
EC50 [13]: 200 pM
T/C (HCT-116 [14]): 65%
Ratio EC50 [15]: 1.5
inhibition (NIH3T3): Dose-Dependent Effect
inhibition in vivo at 100 mg/kg (Mus musculus [16]): 49%
Ratio IC50 (Bos taurus): > 100000
bioavailability [17]: 30.7%
EC50 [18]: 400 pM
ILS at 50 mg/kg (HCT-116 [19]): 32%
T/C (HCT-116 [20]): 32%
Ratio EC50 [21]: 1.5
inhibition (HCT-116 [22]): Dose-Dependent Effect
EC50 [23]: 1700 pM
clearance [24]: 16.7 mL/min/kg
IC50 [25]: 130 pM
Cmax [26]: 280 ng/mL
inhibition in vivo at 50 mg/kg (Mus musculus [27]): 34%
AUC [28]: 7700 ng·h/mL
ILS at 12.5 mg/kg (HCT-116 [29]): 61%
